{"source": "patent US5034548A", "about": "“Steroid derivatives useful as hypocholesterolemics” (E. I. Du Pont de Nemours and Company, priority 1990, dated 1991)", "key": {"[1]": {"biological_target": "T1, Lanosta-8,24-dien-3β-ol 14α-methyl demethylase (Rattus norvegicus, UniProt Q64654)", "T1 construct": "determined in rat depatic microsomal preparations; from tissue; host or cells: rat hepatic microsomes", "T1 sequence (Q64654 1-503)": "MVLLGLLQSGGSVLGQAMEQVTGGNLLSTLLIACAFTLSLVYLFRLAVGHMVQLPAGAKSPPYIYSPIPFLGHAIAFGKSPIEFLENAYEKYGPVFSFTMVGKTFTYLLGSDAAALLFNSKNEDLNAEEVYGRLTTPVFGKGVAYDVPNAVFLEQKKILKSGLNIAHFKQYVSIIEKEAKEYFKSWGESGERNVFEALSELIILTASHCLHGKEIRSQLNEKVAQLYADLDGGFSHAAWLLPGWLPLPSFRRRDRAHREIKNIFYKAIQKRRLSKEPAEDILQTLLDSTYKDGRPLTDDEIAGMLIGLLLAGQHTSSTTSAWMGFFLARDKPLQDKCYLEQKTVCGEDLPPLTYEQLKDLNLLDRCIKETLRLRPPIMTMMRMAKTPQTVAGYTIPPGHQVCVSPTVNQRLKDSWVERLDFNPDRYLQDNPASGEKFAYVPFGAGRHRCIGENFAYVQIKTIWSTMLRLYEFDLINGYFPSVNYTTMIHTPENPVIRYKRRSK", "assay": "Lanosta-8,24-dien-3β-ol 14α-Methyl Demethylase Inhibition Assay", "format": "biochemical", "conditions": "rat hepatic microsomal preparations, 100 μM lanost-8-en-3β-ol substrate, pH not given; test compounds 0 to 100 μM", "protocol": "Lanosta-8,24-dien-3β-ol 14α-methyl demethylase activity was determined in rat depatic microsomal preparations as described in Trzaskos et al., J. Biol. Chem., 261, 16937-16942 (1986). Specifically, test compounds were added to assay mixtures as detergent suspensions with substrate employing 5 mg Triton WR-1339, 100 μM lanost-8-en-3β-ol substrate, and test compounds ranging from 0 to 100 μM. The inhibitor/substrate/detergent suspension was incubated with 2 mg microsomal protein for 5 min at 37° followed by a 10 min incubation initiated by the addition of cofactors required for the reaction. […] Inhibition values are expressed as the amount of compound required to inhibit lanosta-8,24-dien-3β-ol 14α-methyldemethylase activity by 50% relative to that of the controls."}, "[2]": {"assay": "Lowering blood (plasma) cholesterol levels in hamsters", "format": "in vivo, Male Golden Syrian hamsters", "conditions": "0.2% (w/w) in diet, 7 days, N = 16, means±SEM", "protocol": "Male Golden Syrian hamsters (50-60 grams) were obtained from Charles River, Inc. (Wilmington, Mass.). Animals were housed in individual suspension cages and were maintained on a light cycle consisting of 12 hours of light followed by 12 hours of dark. Animals were allowed free access to water and feed (Agway ground chow, RMH 3200, Agway, Syracuse, N.Y.) containing 1% (w/w) corn oil) for a minimum of 4 weeks. Following this stabilization period a sample of blood was collected by orbital sinus bleeding under light ether anesthesia into heparinized capillary tubes. Plasma was separated by centrifugation (600×g for 10 minutes) and plasma cholesterols were determined by an autoanalyzer (Centrifichem 600, Baker Instruments, Allentown, Pa.). Based upon measured plasma cholesterol values, the animals were randomized into two groups such that the mean plasma cholesterol values were identical for both groups.\nAnimals in the two groups were then placed on one of two diets: (1) Diet A, consisting of ground chow plus 1% (w/w) corn oil, as described above; or (2) Diet B, consisting of Diet A plus 0.2% (w/w) of a test compound. Animals on Diet B, the treated animals, were allowed free access to feed and water, while animals on Diet A were pair-matched with Diet B animals and served as pair-fed controls. […] Total plasma cholesterol levels were determined as described above. […]"}, "[3]": {"system": "cholesterol synthesis in CHO cells", "assay": "De novo cholesterol synthesis: incorporation of radiolabeled acetate into cholesterol in CHO cells", "format": "cell-based, Chinese Hamster", "conditions": "for Cholesterol Synthesis (DPMs): 17 hr + 2 hr with [14C]-acetic acid, Control 38855", "protocol": "The ability of the compounds of Formula I to decrease de novo cholesterol synthesis was tested by measuring the incorporation of radiolabeled acetate into cholesterol synthesized in CHO cells. To conduct this experiment, CHO cells were plated at 0.3×10^6 cells per 15×60 mm tissue culture dish in 5 mL of McCoy's modified medium (Gibco Laboratories) containing 1% Cab-O-Sil delipidated FBS and incubated for 48 hours at 37° in a 5% CO2, 95% air environment. Test compounds in a 2.5% suspension of BSA (fatty acid free) in ethanol were then added to the cultures such that the final ethanol and BSA concentrations were 0.5% and […], respectively. Control cultures received ethanol and BSA alone. The cultures containing test compounds were then incubated at 37° in a 5% Co, 95% air environment for 17 hr before the addition of [1,2-^14 C]-acetic acid (57 μCi/mmol); obtained from New England Nuclear, Boston, Mass.) at a concentration of 10 μCi/mL for 2 additional hr.\nThe cells were harvested by washing the cells twice with 5 mL of cold PBS and scraping the cells into 1 mL PBS. The cell-containing solution was then transferred to 15 mL extraction tubes and treated with 1 mL of 90% methanol (containing 15% KOH, 100 μg/mL butylated hydroxytoluene). All samples were saponified for 1 hr at 80° and the non-saponifiable lipids then extracted with petroleum ether. The petroleum ether fractions were dried under nitrogen, resuspended in ethanol, counted and analyzed by reverse phase HPLC at 45° using an Ultrashpere Octyl column (from Altex Scientific Inc., Berkeley, Calif.) with a mobile phase of acetonitrile:methanol:water (44:44:12). The amount of cholesterol synthesis is measured by the amount of radiolabeled acetate incorporated into the cholesterol peak. The percent of cholesterol synthesis in the treated culture is calculated based upon the control culture."}, "[4]": {"system": "3-Hydroxy-3-Methylglutaryl Coenzyme A Reductase (HMGR)", "assay": "HMGR Suppression Assay in digitonin-permeabilized CHO cells", "format": "cell-based, Chinese Hamster", "conditions": "6 hr incubation at 37°, amount to suppress HMGR activity by 50% relative to controls", "protocol": "The ability of the compounds of Formula I to suppress the activity of HMGR, the rate limiting enzyme of cholesterol biosynthesis, was tested as follows. Chinese Hamster Ovary (CHO) cells were divided twice weekly and were maintained in McCoy's 5A medium supplemented with 1% Cab-O-Sil delipidated Fetal Bovine Serum (FBS) (obtained from Gibco Laboratories, Chagrin Falls, Ohio). Cells were harvested during the logarithmic phase of growth and cell cultures were prepared by adding 0.5×10^6 cells to wash well in a 24 well cluster dish (obtained from Costar, Data Packaging Corp., Cambridge, Mass.) employing 1 mL of the above medium per each well. […] Control cells were treated in an identical fashion to those which received test compound, except they were incubated with the BSA and ethanol suspension only.\nSpecifically, the medium in each well was aspirated and the cells rinsed with a 50 mM solution of phosphate buffered saline (PBS). One mL of 30 μg/mL of digitonin in CSK buffer (prepared using 10 mM Pipes [piperazine-N,N'-bis(2-ethansulfonic)acid'], 100 mM KCl, 2.5 mM MgCl2, 300 mM sucrose, 1 mM EGTA, pH 6.8) was added to each well and incubated for 10 min at 22° to permeabilize the cells. The buffer was carefully aspirated and the wells were rinsed twice each time with 1 mL of PBS. HMGR activity was measured directly by adding 75 μL of PIB buffer (50 mM potassium phosphate, 1 mM Na2 EDTA, 10 mM dithiothreitol, pH 7.4) to each well and incubating the cells for 30 minutes at 37° as described above. […] HMG-Coenzyme A (15 DPM/pmol), pH 7.4. The assay mixture was incubated for 30 min at 37° and terminated by the addition of 70 μL of [^3 H]-mevalonic acid (35,000 DPM/assay), 0.15 mg/mL in 3 N HCl. The reaction was left to lactonize for an additional 30 min at 37° or overnight at room temperature.\nReaction products were separated by thin layer chromatography on silica gel G (obtained from Analtech, Newark, Del.) developed in an unsaturated environment with acetone:benzene (3:2, v:v). The band corresponding to mevalonolactone was identified by exposure to iodine vapor and was scraped into counting vials. The extent of conversion of starting substrate, HMG-CoA, to mevalonic acid was determined by liquid scintillation counting in Biofluor (obtained from New England Nuclear, Boston, Mass). Corrections for recovery and blank values were made for each sample. Protein determinations were made by the Bio-rad (Bio-Rad, Richmond, Cal.) dye binding assay according to the manufacturer's instruction using bovine serum albumin as standard. Cellular protein was solubilized from culture dishes by the addition of 20 μL of 16 N KOH and assayed directly for protein amount. Suppression values are expressed as the amount of compound required to suppress HMGR activity by 50% relative to that of the controls."}}, "data": [{"smiles": "CC(C)CCC[C@@H](C)[C@H]1CC(=NO)[C@@]2(C)C3=CC[C@H]4C(C)(C)[C@@H](O)CC[C@]4(C)[C@H]3CC[C@]12C", "note": "[Compound 31b, 3β-hydroxy-lanost-7-en-15-oxime]", "values": [{"measurement": "IC50", "setting": "[1]", "value": 55000, "unit": "nM"}, {"measurement": "Plasma Cholesterol, Treated", "setting": "[2]; pair-fed control 136.0 ± 4.8", "value": "69.6 ± 2.6", "unit": "mg/dL"}, {"measurement": "Cholesterol Synthesis (DPMs)", "setting": "[3]; 0.5 μM", "value": 24064, "unit": "DPMs"}, {"measurement": "activity at 0.5 µM", "setting": "[3]; Cricetulus griseus, 19 h, 0.5 μM, percent of control culture (100)", "value": 62, "unit": "%"}, {"measurement": "IC50", "setting": "[4]", "value": 200, "unit": "nM"}]}, {"smiles": "CC(C)CCC[C@@H](C)[C@H]1C[C@H](O)[C@@]2(O)C3=C(CC[C@]12C)[C@@]1(C)CC[C@H](O)C(C)(C)[C@@H]1CC3", "note": "[Compound 34a, 4,4-dimethyl-5α-cholest-8-en-3β,14α,15α-triol]", "values": [{"measurement": "IC50", "setting": "[1]", "value": 3000, "unit": "nM"}, {"measurement": "Plasma Cholesterol, Treated", "setting": "[2]; pair-fed control 136.0 ± 3.5", "value": "119.3 ± 2.3", "unit": "mg/dL"}, {"measurement": "Cholesterol Synthesis (DPMs)", "setting": "[3]; 1 μM", "value": 16521, "unit": "DPMs"}, {"measurement": "activity at 1 µM", "setting": "[3]; Cricetulus griseus, 19 h, 1 μM, percent of control culture (100)", "value": 43, "unit": "%"}, {"measurement": "IC50", "setting": "[4]", "value": 500, "unit": "nM"}]}]}
